Data: patent publication US7056275B2, “Radiotherapy” (Algeta A/S, priority 2000, dated 2006)
Where two headings read alike, the source gives them in different places.

How the values were obtained:
[1] = for Tissue distribution, Blood / Tissue distribution, Brain / Tissue distribution, Femur / Tissue distribution, Heart / Tissue distribution, Kidney / Tissue distribution, L.I. / Tissue distribution, Liver / Tissue distribution, Lung / Tissue distribution, Muscle / Tissue distribution, Rib / Tissue distribution, S.I. / Tissue distribution, Skull / Tissue distribution, Spleen / Tissue distribution, Stomach: +/- SD; for Femur/Blood ratio / Femur/Kidneys ratio / Femur/Liver ratio / Femur/Spleen ratio: Balb C mice; for femur to blood and femur to tissue ratios compared to cationic radium-223 (in words): chelates at 4 hours vs radium-223 at 6 hours after injection, for some organs
Method: The biodistribution of thorium and actinium bound to polyphosphonate was studied in mice.
Balb/C mice with a bodyweight in the range of 11–16 g were used in the biodistribution experiments. The compounds were administered by intravenous injection of 100–200 μl of the preparation for each animal in paired label arrangement. The compounds ^228Ac-DOTMP, ^227Th-DOTMP, ^227Th-DTMP and ^227Th-acetate/MES were investigated. Approximately 5 kBq of ^[…] and 5 kBq of ^228Ac was injected. Animals were sacrificed by cervical dislocation. The tissue distribution was determined on 3 mice for each pair of compounds. The tissue distribution was determined after 4 hours for ^228Ac-DOTMP, ^227Th-DOTMP, ^227Th-DTMP and ^227Th-acetate.
In general, radioactivity in the tissue samples was measured by using a NaI (Tl) well-type detector and by liquid scintillation counting (Beckmann LS6500, Beckmann, Fullerton, Calif., USA). ^227Th was measured by using a HPGe detector (Canberra, Conn, USA) and also by liquid scintillation counting after dissolution of tissue samples and allowing decay of ^228Ac. ^228Ac was measured by the HPGe detector and the NaI(Tl) detector.
Samples of the radioactive preparations of the nuclides were used as references to account for physical decay and radiation crossover in the detection procedures.

[2] = cationic species, mice, published data; cited from earlier work
[3] = 4 hours after injection, i.v., Balb/C mice
[4] = bone seeking chelates, 4 hours after injection
[5] = cationic radium-223, 6 hours after injection

O=P([O-])(O)CN1CCN(CP(=O)([O-])O)CCN(CP(=O)(O)O)CCN(CP(=O)([O-])O)CC1.[228Ac+3] [Ac-228 DOTMP]
Tissue distribution, Blood [1, 3]: <0.1 % I.D./g
Tissue distribution, Brain [1, 3]: <0.1 % I.D./g
Tissue distribution, Femur [1, 3]: 20.67 ± 2.23 % I.D./g
Tissue distribution, Heart [1, 3]: <0.1 % I.D./g
Tissue distribution, Kidney [1, 3]: 2.7 ± 2.4 % I.D./g
Tissue distribution, L.I. [1, 3]: 0.20 ± 0.11 % I.D./g
Tissue distribution, Liver [1, 3]: 1.26 ± 0.9 % I.D./g
Tissue distribution, Lung [1, 3]: 0.20 ± 0.10 % I.D./g
Tissue distribution, Muscle [1, 3]: 0.30 ± 0.11 % I.D./g
Tissue distribution, Rib [1, 3]: 10.5 ± 3.5 % I.D./g
Tissue distribution, S.I. [1, 3]: 0.14 ± 0.07 % I.D./g
Tissue distribution, Skull [1, 3]: 10.7 ± 2.7 % I.D./g
Tissue distribution, Spleen [1, 3]: 0.51 ± 0.10 % I.D./g
Femur/Blood ratio [1, 4]: >196
Femur/Kidneys ratio [1, 4]: 7.7
Femur/Liver ratio [1, 4]: 16.4
Femur/Spleen ratio [1, 4]: 41.3
femur to blood and femur to tissue ratios compared to cationic radium-223 (in words) [1]: better

[223Ra] [^223Ra, reference compound]
Femur/Blood ratio [1, 5]: 129
Femur/Kidneys ratio [1, 5]: 6.4
Femur/Liver ratio [1, 5]: 29.1
Femur/Spleen ratio [1, 5]: 6.4

CC(=O)[O-].CC(=O)[O-].CC(=O)[O-].[Ac+3] [cationic actinium]
selective bone uptake relative to soft tissue uptake (in words) [2]: does not show sufficient selective bone uptake relative to soft tissue uptake

CC(=O)[O-].CC(=O)[O-].CC(=O)[O-].CC(=O)[O-].[227Th+4] [^227Th-acetate, reference compound]
Tissue distribution, Blood [1, 3]: 1.2 ± 0.4 % I.D./g
Tissue distribution, Brain [1, 3]: <0.1 % I.D./g
Tissue distribution, Femur [1, 3]: 23.4 ± 6.9 % I.D./g
Tissue distribution, Heart [1, 3]: 2.6 ± 0.2 % I.D./g
Tissue distribution, Kidney [1, 3]: 7.7 ± 0.7 % I.D./g
Tissue distribution, L.I. [1, 3]: 1.7 ± 0.1 % I.D./g
Tissue distribution, Liver [1, 3]: 56.5 ± 9.4 % I.D./g
Tissue distribution, Lung [1, 3]: 2.6 ± 0.4 % I.D./g
Tissue distribution, Muscle [1, 3]: 1.1 % I.D./g
Tissue distribution, Rib [1, 3]: 14.6 ± 4.4 % I.D./g
Tissue distribution, S.I. [1, 3]: 2.3 ± 0.1 % I.D./g
Tissue distribution, Skull [1, 3]: 18.9 ± 7.6 % I.D./g
Tissue distribution, Spleen [1, 3]: 14.2 ± 2.8 % I.D./g
Tissue distribution, Stomach [1, 3]: 4.6 ± 1.0 % I.D./g
bone uptake (in words) ([1]; 4 hours after injection, mice): high and similar to the observed values with the bone-seeking polyphosphonate complexing agents
suitability for in vivo bone targeting given affinity for soft tissues, e.g. liver and spleen (in words) ([1]; 4 hours after injection, mice): unsuitable for in vivo bone targeting

O=P([O-])(O)CN1CCN(CP(=O)([O-])O)CCN(CP(=O)([O-])O)CCN(CP(=O)([O-])O)CC1.[227Th+4] [Th-227 DOTMP]
Tissue distribution, Blood [1, 3]: <0.1 % I.D./g
Tissue distribution, Brain [1, 3]: <0.1 % I.D./g
Tissue distribution, Femur [1, 3]: 20.55 ± 2.21 % I.D./g
Tissue distribution, Heart [1, 3]: <0.1 % I.D./g
Tissue distribution, Kidney [1, 3]: 3.43 ± 1.70 % I.D./g
Tissue distribution, L.I. [1, 3]: 0.19 ± 0.10 % I.D./g
Tissue distribution, Liver [1, 3]: 0.39 ± 0.19 % I.D./g
Tissue distribution, Lung [1, 3]: 0.18 ± 0.09 % I.D./g
Tissue distribution, Muscle [1, 3]: 0.29 ± 0.17 % I.D./g
Tissue distribution, Rib [1, 3]: 11.06 ± 3.81 % I.D./g
Tissue distribution, S.I. [1, 3]: 0.14 ± 0.08 % I.D./g
Tissue distribution, Skull [1, 3]: 10.8 ± 2.94 % I.D./g
Tissue distribution, Spleen [1, 3]: 0.51 ± 0.14 % I.D./g
Tissue distribution, Stomach [1, 3]: 0.15 ± 0.05 % I.D./g
Tissue distribution, Urine ([1]; 4 hours after injection, i.v., Balb/C mice, n = 1): 21.1 % I.D./g
Femur/Blood ratio [1, 4]: >196
Femur/Kidneys ratio [1, 4]: 6.0
Femur/Liver ratio [1, 4]: 52.7
Femur/Spleen ratio [1, 4]: 40.3
femur to blood and femur to tissue ratios compared to cationic radium-223 (in words) [1]: better

O=P([O-])(O)CN(CCN(CP(=O)([O-])O)CP(=O)([O-])O)CCN(CP(=O)([O-])O)CP(=O)(O)O.[227Th+4] [Th-227 DTMP]
Tissue distribution, Blood [1, 3]: <0.1 % I.D./g
Tissue distribution, Brain [1, 3]: <0.1 % I.D./g
Tissue distribution, Femur [1, 3]: 19.58 ± 3.58 % I.D./g
Tissue distribution, Heart [1, 3]: <0.1 % I.D./g
Tissue distribution, Kidney [1, 3]: 1.38 ± 0.54 % I.D./g
Tissue distribution, L.I. [1, 3]: 0.15 ± 0.03 % I.D./g
Tissue distribution, Liver [1, 3]: 0.40 ± 0.43 % I.D./g
Tissue distribution, Lung [1, 3]: 0.12 ± 0.04 % I.D./g
Tissue distribution, Muscle [1, 3]: 0.63 ± 0.33 % I.D./g
Tissue distribution, Rib [1, 3]: 8.83 ± 5.06 % I.D./g
Tissue distribution, S.I. [1, 3]: 0.56 ± 0.63 % I.D./g
Tissue distribution, Skull [1, 3]: 12.3 ± 3.14 % I.D./g
Tissue distribution, Spleen [1, 3]: 0.13 ± 0.04 % I.D./g
Tissue distribution, Stomach [1, 3]: 0.70 ± 0.80 % I.D./g
Femur/Blood ratio [1, 4]: >196
Femur/Kidneys ratio [1, 4]: 14.2
Femur/Liver ratio [1, 4]: 49
Femur/Spleen ratio [1, 4]: 151
femur to blood and femur to tissue ratios compared to cationic radium-223 (in words) [1]: better
